These are literature values, as cited in US7300923B2, “Partial and full agonists of A1 adenosine receptors” (CV Therapeutics, Inc., priority 2004, dated 2007).

The target in series [1] is T1, A1-adenosine receptor (Homo sapiens, UniProt P30542).
T1 sequence (P30542 1-326): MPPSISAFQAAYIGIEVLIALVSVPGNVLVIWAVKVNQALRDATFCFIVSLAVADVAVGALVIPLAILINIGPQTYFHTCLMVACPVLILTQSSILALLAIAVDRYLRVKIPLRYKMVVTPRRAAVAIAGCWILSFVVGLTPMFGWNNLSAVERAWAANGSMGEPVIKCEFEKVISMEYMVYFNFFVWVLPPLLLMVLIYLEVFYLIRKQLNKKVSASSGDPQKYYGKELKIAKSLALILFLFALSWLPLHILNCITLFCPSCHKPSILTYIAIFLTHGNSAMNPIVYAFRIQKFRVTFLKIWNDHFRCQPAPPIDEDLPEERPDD

In series [2] the test system is seizures induced by DMCM. As to conditions: seizures induced by the inverse benzodiazepine agonist DMCM.

In the case of `OC1CCCC1Nc1ncnc2c1ncn2[C@@H]1O[C@H](CSc2ccccc2F)[C@@H](O)[C@H]1O` (mixture of isomers) [(4S,5S,2R,3R)-5-[(2-fluorophenylthio)methyl]-2-{6-[(2-hydroxy-cyclopentyl)amino]-purin-9-yl}oxolane-3,4-diol], the “A1-adenosine receptor agonist profile” value in series [1] is recorded as “highly selective partial A1-adenosine receptor agonist”.

For `Cc1ccccc1CNc1ncnc2c1ncn2[C@@H]1O[C@H](CO)[C@@H](O)[C@H]1O` [metrifudil], in series [2], the anticonvulsant activity result is listed as “potent anticonvulsant”.

Regarding `Nc1ncnc2c1ncn2[C@@H]1O[C@H](CO)[C@@H](O)[C@H]1O` [adenosine, Adenosine], the half-life result is on record as “less than 10 sec”.
